Experimental data published in publication PMC6274355, “Synthesis and Anti-HIV-1 Activity Evaluation for Novel 3a,6a-Dihydro-1H-pyrrolo[3,4-c]pyrazole-4,6-dione Derivatives” (Molecules, 2016).
Where two headings read alike, the source gives them in different places.

Columns and labels:
[1] = tested on: C8166 cells; assay: Cytotoxicity assay (MTT); assay type: cell-based
Experimental: (§1) The cytotoxicty assay was performed by 3-(4,5-dimethylthiazol-2-yl)-2,5-diphenyl tetrazoliumbromide (MTT) method. Briefly, 100 μL 4 × 10^4 C8166 cells were seeded each well with 100 μL of different concentrations of compounds in a 96-well plate. The plate was incubated 72 h at 37 °C, 5% CO2 incubator. MTT (20 μL, 5 mg/mL) was added to each well and the plate was incubated at 37 °C for 4 h. Supernatant (100 μL) was discarded and 20% SDS-50% DMF (100 μL) was added. The plates were read at 570/630 nm by a Bio-Tek Elx 800 reader (Bio-Tek Instruments, Inc., Winooski, VT, USA). The 50% cytotoxic concentration (CC50) was calculated.

[2] = tested on: HIV-1IIIB; assay: Syncytia inhibition assay (HIV-1IIIB infected C8166 cells); assay type: cell-based; details: for TI (in vitro therapeutic index, CC50 value/EC50 value): CC50 in C8166 cells / EC50 syncytia inhibition; for EC50: HIV-1IIIB infected C8166 cells, 72 h, means of two separate experiments, read-out: EC50 (50% effective concentration, reduces syncytia formation by 50%)
Experimental: Target compounds 6–16 were evaluated for their inhibitory activity against HIV-1 replication in acutely infected C8166 cells in vitro according to the previously described method, and AZT was used as a positive control. The assay results of the target compounds are presented in Table 1 and Table 2, expressed as CC50, EC50 and therapeutic index (TI).
The syncytia inhibition assay was applied by counting syncytia which were formed by HIV-1IIIB infected C8166 cells. Briefly, HIV-1IIIB supernatant and C8166 cells were seeded in a 96-well plate with different concentration of compounds. The plate was incubated in a 37 °C, 5% CO2 incubator for 72 h. Syncytia were counting under an inverted microscope and 50% effective concentration (EC50) was calculated. Therapeutic index (TI) was calculated by the ratio of CC50/EC50.

[3] = tested on: HIV; design: method as in earlier work; details: Figure 1; cited from earlier work
[4] = Cytotoxicity assay (MTT); assay type: cell-based; details: human; C8166 cells, MTT, 72 h; means of two separate experiments; read-out: CC50 (50% cytotoxic concentration)
Experimental: as §1

[5] = Human immunodeficiency virus 1, C8166, 72 h

Molecule | CC50 [1] [µM] | TI (in vitro therapeutic index, CC50 value/EC50 value) [2] | EC50 [2] [µM] | CC50 ([1]; C8166 cells, MTT, 72 h, means of two separate experiments, read-out: CC50 (50% cytotoxic concentration)) [µM] | EC50 [3] [µM] | CC50 at 72 h [4] [µM] | EC50 [2, 5] [µM]
3-(2,3-Dihydroxyphenyl)-1-(4-fluorophenyl)-5-[2-(4-fluorophenyl)ethyl]-3a,6a-dihydro-1H-pyrrolo[3,4-c]pyrazole-4,6-dione [10b] | 189 | 39.85 | 4.73 | – | – | – | –
Cc1cn([C@H]2C[C@H](N=[N+]=[N-])[C@@H](CO)O2)c(=O)[nH]c1=O [AZT, reference compound] | – | 444,588 | 0.0085 | 3780 | – | – | –
CCOC(=O)c1ncc(O)c2c1C(=O)N(CCc1ccc(F)cc1)C2=O [compound 5] | – | – | – | – | 1.65 | – | –
COc1cccc(C2=NN(c3ccc(F)cc3)C3C(=O)N(CCc4ccccc4F)C(=O)C23)c1O (centres unmarked) [16a, 1-(4-Fluorophenyl)-5-[2-(2-fluorophenyl)ethyl]-3-(2-hydroxy-3-methoxyphenyl)-3a,6a-dihydro-1H-pyrrolo[3,4-c]pyrazole-4,6-dione] | – | 7.78 | – | – | – | 19.6 | 2.52
COc1cccc(C2=NN(c3ccc(F)cc3)C3C(=O)N(CCc4ccc(Cl)cc4)C(=O)C23)c1O (centres unmarked) [16c, 5-[2-(4-Chlorophenyl)-ethyl]-1-(4-fluorophenyl)-3-(2-hydroxy-3-methoxyphenyl)-3a,6a-dihydro-1H-pyrrolo[3,4-c]pyrazole-4,6-dione] | – | 6.73 | – | – | – | 70.1 | 10.4
O=C1C2C(c3ccc(O)cc3O)=NN(c3ccc(F)cc3)C2C(=O)N1CCc1ccc(F)cc1 (centres unmarked) [9a, 3-(2,4-Dihydroxyphenyl)-1-(4-fluorophenyl)-5-[2-(4-fluorophenyl)ethyl]-3a,6a-dihydro-1H-pyrrolo[3,4-c]pyrazole-4,6-dione] | – | 4.91 | – | – | – | 173 | 35.3
COc1cccc(C2=NN(c3ccc(F)cc3)C3C(=O)N(CCc4ccc(F)cc4)C(=O)C23)c1O (centres unmarked) [9g, 1-(4-Fluorophenyl)-5-[2-(4-fluorophenyl)ethyl]-3-(2-hydroxy-3-methoxyphenyl)-3a,6a-dihydro-1H-pyrrolo[3,4-c]pyrazole-4,6-dione] | – | >105.26 | 3.98 | – | – | > 419 | < 5
COc1cccc(C2=NN(c3ccc(S(N)(=O)=O)cc3)C3C(=O)N(CCc4ccc(F)cc4)C(=O)C23)c1O (centres unmarked) [15g, 4-[5-[2-(4-Fluorophenyl)ethyl]-3-(2-hydroxy-3-methoxyphenyl)-4,6-dioxo-4,5,6,6a-tetrahydro-3aH-pyrrolo[3,4-c]pyrazol-1-yl]-benzenesulfonamide] | – | 1.51 | – | – | – | 46 | 30.4
COc1ccc(C2=NN(c3ccc(F)cc3)C3C(=O)N(CCc4ccc(F)cc4)C(=O)C23)c(O)c1 (centres unmarked) [10a, 1-(4-Fluorophenyl)-5-[2-(4-fluorophenyl)ethyl]-3-(2-hydroxy-4-methoxyphenyl)-3a,6a-dihydro-1H-pyrrolo[3,4-c]pyrazole-4,6-dione] | – | 2.51 | – | – | – | 21.4 | 8.52
COc1ccc(CCN2C(=O)C3C(c4cccc(OC)c4O)=NN(c4ccc(F)cc4)C3C2=O)cc1 (centres unmarked) [16e, 1-(4-Fluorophenyl)-3-(2-hydroxy-3-methoxyphenyl)-5-[2-(4-methoxyphenyl)ethyl]-3a,6a-dihydro-1H-pyrrolo[3,4-c]pyrazole-4,6-dione] | – | 2.52 | – | – | – | 219 | 87.2
O=C1C2C(c3cc(F)ccc3O)=NN(c3ccc(F)cc3)C2C(=O)N1CCc1ccc(F)cc1 (centres unmarked) [9c, 1-(4-Fluorophenyl)-5-[2-(4-fluorophenyl)ethyl]-3-(5-fluoro-2-hydroxyphenyl)-3a,6a-dihydro-1H-pyrrolo[3,4-c]pyrazole-4,6-dione] | – | 37.70 | – | – | – | 159 | 4.21
COc1cccc(C2=NN(c3ccc(C(F)(F)F)cc3)C3C(=O)N(CCc4ccc(F)cc4)C(=O)C23)c1O (centres unmarked) [15e, 5-[2-(4-Fluorophenyl)-ethyl]-3-(2-hydroxy-3-methoxyphenyl)-1-(4-trifluoromethylphenyl)-3a,6a-dihydro-1H-pyrrolo[3,4-c]pyrazole-4,6-dione] | – | >11.81 | – | – | – | > 379 | 32.1
COc1cccc(C2=NN(c3ccc(F)cc3)C3C(=O)N(CCc4cccc(F)c4)C(=O)C23)c1O (centres unmarked) [16b, 1-(4-Fluorophenyl)-5-[2-(3-fluorophenyl)ethyl]-3-(2-hydroxy-3-methoxyphenyl)-3a,6a-dihydro-1H-pyrrolo[3,4-c]pyrazole-4,6-dione] | – | 11.01 | – | – | – | 143 | 13
O=C1C2C(c3ccccc3)=NN(c3ccc(F)cc3)C2C(=O)N1CCc1ccc(F)cc1 (centres unmarked) [7b, 1-(4-Fluorophenyl)-5-[2-(4-fluorophenyl)ethyl]-3-phenyl-3a,6a-dihydro-1H-pyrrolo[3,4-c]pyrazole-4,6-dione] | – | 16.03 | – | – | – | 148 | 9.21
COc1cccc(C2=NN(c3ccc(F)cc3)C3C(=O)N(CCc4ccc(F)cc4)C(=O)C23)c1OC (centres unmarked) [12a, 3-(2,3-Dimethoxyphenyl)-1-(4-fluorophenyl)-5-[2-(4-fluorophenyl)ethyl]-3a,6a-dihydro-1H-pyrrolo[3,4-c]pyrazole-4,6-dione] | – | >36.56 | – | – | – | > 407 | 11.1
